The target in assay [1] is T1, human P1R (Homo sapiens, UniProt Q03431).
T1 construct: expressed in transfected cells; host or cells: HKRK-B28 (porcine kidney LLC-PK1, stably transfected)
T1 sequence (Q03431 27-593): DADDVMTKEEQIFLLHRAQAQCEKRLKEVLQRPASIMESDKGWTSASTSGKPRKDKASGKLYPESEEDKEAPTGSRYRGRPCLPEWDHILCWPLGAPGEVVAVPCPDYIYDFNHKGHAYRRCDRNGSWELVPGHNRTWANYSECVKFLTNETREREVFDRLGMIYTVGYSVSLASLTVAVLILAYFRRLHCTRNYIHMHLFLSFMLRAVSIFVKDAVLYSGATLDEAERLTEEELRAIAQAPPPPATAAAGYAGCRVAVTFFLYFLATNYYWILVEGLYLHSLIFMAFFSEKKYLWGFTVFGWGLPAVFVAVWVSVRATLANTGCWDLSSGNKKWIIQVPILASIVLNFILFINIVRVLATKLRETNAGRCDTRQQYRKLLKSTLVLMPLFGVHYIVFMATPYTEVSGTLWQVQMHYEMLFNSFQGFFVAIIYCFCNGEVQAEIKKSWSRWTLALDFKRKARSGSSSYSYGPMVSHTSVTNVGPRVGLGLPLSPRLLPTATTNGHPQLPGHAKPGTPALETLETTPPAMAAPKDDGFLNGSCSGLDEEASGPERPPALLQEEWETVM
The assay is described as follows: cAMP stimulation in HKRK-B28 cells. It counts as cell-based. Particulars: for cAMP EMax(obs.): basal 4.0 ± 0.1 pmole/well not subtracted. How it is done:
(§1) Cell Culture. The cell line HKRK-B28 (Takasu, H., et al., J. Bone Miner. Res. 14:11-20 (1999)) was derived from the porcine kidney cell line, LLC-PK1 by stable transfection with plasmid DNA encoding the human P1R and expresses ˜280,000 receptors per cell. These cells, as well as COS-7 cells and SaOS-2-B10 cells, were cultured at […] in T-75 flasks ([…]) in Dulbecco's modified Eagle's medium (DMEM) supplemented with fetal bovine serum (10%), penicillin G (20 units/ml), streptomycin sulfate (20 μg/ml) and amphotericin B (0.05 μg/ml) in a humidified atmosphere containing 5% CO2. Stock solutions of EGTA/trypsin and antibiotics were from GIBCO; fetal bovine serum was from Hyclone Laboratories (Logan, Utah). COS-7 cells sub-cultured in 24-well plates were transfected with plasmid DNA (200 ng per well) encoding the wild-type human P1R or truncated human P1R deleted for residues (24-181) (Shimizu, M., et al., J. Biol. Chem. 275:21836-21843 (2000)) that was purified by cesium chloride/ethidium bromide density gradient centrifugation, and FuGENE 6 transfection reagent (Roche Indianapolis Ind.) according to the manufacturer's recommended procedure. All cells, in 24-well plates, were treated with fresh media and shifted to 33° C. for 12 to 24 h prior to assay.
(§2) cAMP Stimulation. Stimulation of cells with peptide analogs was performed in 24-well plates. Cells were rinsed with 0.5 mL of binding buffer (50 mM Tris-HCI, […], 5 mM KCl, 2 mM CaCl2, 5% heat-inactivated horse serum, 0.5% fetal bovine serum, adjusted to pH 7.5 with HCl) and treated with 200 μL of cAMP assay buffer (Delbecco's modified Eagle's medium containing 2 mM 3-isobutyl-1-methylxanthine, 1 mg/mL bovine serum albumin, 35 mM Hepes-NaOH, pH 7.4) and 100 μL of binding buffer containing varying amounts of peptide analog (final volume=300 μL). The medium was removed after incubation for 30 to 60 minutes at room temperature, and the cells were frozen on dry ice, lysed with 0.5 mL 50 mM HCl, and refrozen ([…]). The cAMP content of the diluted lysate was determined by radioimmunoassay. The EC50 response values were calculated using nonlinear regression (see below).
(§3) Data Calculation. Calculations were performed using Microsoft® Excel. Nonlinear regression analyses of binding and cAMP dose-response data were performed using the four-parameter equation: yp=Min+[(Max−Min)/(1+(IC50/x)^slope)]. The Excel Solver function was utilized for parameter optimization, as described previously (Carter, P. H., et al., Endocrinology 140: 4972-4981 (1999); Bowen, W. P., and Jerman, J. C., Trends in Pharmacol. Sci. 16: 413-417 (1995)). Differences between paired data sets were statistically evaluated using a one-tailed Student's t-test, assuming unequal variances for the two sets.

Assay [2] concerns the target T1, human P1R. Description: Competition binding in HKRK-B28 cells. Here is the method:
as §1
Competition Binding. Binding reactions were performed with HKRK-B28 cells or in COS-7 cells in 24-well plates. The cells were rinsed with 0.5 mL of binding buffer, and then treated successively with 100 μL binding buffer, 100 μL of binding buffer containing various amounts of unlabeled competitor ligand, and 100 μL of binding buffer containing ca. 100,000 cpm of ^125I-[M]PTH(1-21) or ^125I-[Aib^1,3,M]PTH(1-21)} (ca. 26 fmol; final volume=300 μL). Incubations were 4 to 6 h at 4° C., at which time near equilibrium conditions were attained. Cells were then placed on ice, the binding medium was removed, and the monolayer was rinsed three times with 0.5 mL of cold binding buffer. The cells were subsequently lysed with 0.5 mL […] and counted for radioactivity. For each tracer and in each experiment, the non-specific binding was determined as the radioactivity that bound in the presence of the same unlabeled peptide at a concentration of 1 μM, and was ˜1% of total radioactivity added for each tracer. The maximum specific binding (B0) was the total radioactivity bound in the absence of competing ligand, corrected for nonspecific binding, and for each tracer, ranged from 8% to 20% of the total radioactivity added. Nonlinear regression was used to calculate binding IC50 values (see below). Scatchard transformations of homologous competition binding data derived from studies with 26 fmol of ^125I-[Aib^1,3,M]PTH(1-21) were employed for estimations of apparent equilibrium dissociation constant (kDapps) and total number of ligand binding sites (Bmax), assuming a single class of binding sites and equal affinities of the iodinated and non iodinated ligand.
as §3
The P1R-binding properties of these analogs were assayed in competition studies performed in […]. In previous studies, PTH(1-14) binding could not be detected using ^125I-PTH(1-34) and related N-terminally intact and relatively unmodified radioligands (Luck, M. D., et al., Molecular Endocrinology 13:670-680 (1999)). […]

The target in assay [3] is T2, P1R-delNt, truncated human P1R deleted for residues (24-181) (Homo sapiens, UniProt Q03431).
T2 construct: expressed in transfected cells; host or cells: COS-7 (transient, FuGENE 6)
T2 sequence (Q03431 with tags, fused parts or gaps limits assumed): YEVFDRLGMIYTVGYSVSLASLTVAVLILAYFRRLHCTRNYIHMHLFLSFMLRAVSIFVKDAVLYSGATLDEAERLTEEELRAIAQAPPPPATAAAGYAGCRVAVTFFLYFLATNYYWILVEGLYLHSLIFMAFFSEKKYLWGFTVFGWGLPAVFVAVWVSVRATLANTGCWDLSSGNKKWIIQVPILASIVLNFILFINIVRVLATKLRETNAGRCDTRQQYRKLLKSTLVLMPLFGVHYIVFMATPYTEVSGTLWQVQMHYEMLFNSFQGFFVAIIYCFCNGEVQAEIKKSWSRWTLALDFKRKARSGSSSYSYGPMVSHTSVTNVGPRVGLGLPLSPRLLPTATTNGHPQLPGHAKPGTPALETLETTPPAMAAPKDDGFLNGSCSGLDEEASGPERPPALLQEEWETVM
Description: cAMP stimulation in COS-7 cells expressing hP1R-delNt. The assay is classed as cell-based. Particulars: hP1R-delNT. How it is done:
as §1, §2, §3
The possibility that the activity-enhancing effects of the Aib substitutions at positions 1 and 3 were mediated through the juxtamembrane (J) region of the receptor was investigated in COS-7 cells transiently transfected with P1R-delNt. P1R-delNt was a truncated P1R that lacked most of the amino-terminal extracellular domain.

Assay [4] addresses T3, PTH-1 receptor endogenously expressed in SaOS-2 cells (Homo sapiens, UniProt Q03431).
T3 construct: endogenously expressed relatively low levels of the PTH-1 receptor; endogenous in cells; host or cells: SaOS-2 (SaOS-2-B10) human osteosarcoma cells
T3 sequence (Q03431 27-593): T1 sequence (Q03431 27-593)
The assay is described as follows: cAMP stimulation in SaOS-2 cells. The assay is classed as cell-based. Particulars: for EMAX(obs.): cAMP, basal 6.4 ± 0.8. Here is the method:
as §1, §2, §3
The number of PTH-1 receptors expressed on the surface of the PTH target cells in bone or kidney is uncertain, but it is likely to be considerably lower than that found in HKRK-B28 cells. Therefore, several of the Aib-mounted PTH analogs were evaluated using SaOS-2 cells.

The target of assay [5] is T2, P1R-delNt, truncated human P1R deleted for residues (24-181). Description: Competition binding in COS-7 cells expressing hP1R-delNt. The note with it: direct binding of the radioligand.
Where [6] appears, read: HKRK-B28 cells, tracer 125I-[M]PTH(1-21)amide, 4 h at 4° C., N.B. = no binding detected at 10 μm peptide.

Square brackets hold non-standard residues; d marks the D form. Ends that are not written are not given here. Peptide text beside a SMILES is read from it. hArg = N=C(N)NCCCC[C@H](N)C(=O)O; Nle = CCCC[C@H](N)C(=O)O; Aib = CC(C)(N)C(=O)O

As for `CC[C@H](C)[C@H](NC(=O)[C@H](CCC(=O)O)NC(=O)[C@H](C)NC(=O)[C@@H](NC(=O)[C@H](C)N)C(C)C)C(=O)N[C@@H](CCC(N)=O)C(=O)N[C@@H](CC(C)C)C(=O)N[C@@H](CCSC)C(=O)N[C@@H](Cc1cnc[nH]1)C(=O)N[C@@H](CCC(N)=O)C(=O)N[C@@H](CCCCN=C(N)N)C(=O)N[C@@H](C)C(=O)N[C@@H](CCCCN)C(=O)N[C@@H](Cc1c[nH]c2ccccc12)C(N)=O` [[M]PTH(1-14), [Ala^3,12,Gln^10,Har^11,Trp^14]PTH(1-14)amide, reference compound] (H-AVAEIQLMHQ[hArg]AKW-NH2), the figures for the EC50 in assay [1] and in assay [3] were 0.1 ± 0.02 µM and 0.04 ± 0.002 µM, respectively. Moreover, the IC50 (usually the concentration that inhibits the measured activity by half) in assay [2] (setting [6]) worked out at 1.3e-05 M.

In the case of `CC[C@H](C)[C@H](NC(=O)[C@H](CCC(=O)O)NC(=O)C(C)(C)NC(=O)[C@@H](NC(=O)[C@H](C)N)C(C)C)C(=O)N[C@@H](CCC(N)=O)C(=O)N[C@@H](CC(C)C)C(=O)N[C@@H](CCSC)C(=O)N[C@@H](Cc1c[nH]cn1)C(=O)N[C@@H](CCC(N)=O)C(=O)N[C@@H](CCCCNC(=N)N)C(=O)N[C@@H](C)C(=O)N[C@@H](CCCCN)C(=O)N[C@@H](Cc1c[nH]c2ccccc12)C(N)=O` [Aib-3, AlaValAibGluIleGlnLeuMetHisGlnHarAlaLysTrp] (H-AV[Aib]EIQLMHQ[hArg]AKW-NH2), in assay [1], the “cAMP EMax(obs.)” value came out at 269 ± 7 pmole/well. In addition, in assay [2] (HKRK-B28 cells), the “fold improvement of apparent binding affinity relative to [M]PTH(1-14)” value is recorded as “approximately 10 fold”. Also, in assay [4], the “fold more potent in stimulating cAMP formation than [M]PTH(1-14)” value is given as 8 fold and the “EMAX(obs.)” value is on record as 330 ± 30 pmole/well.

Take “^125I-[M]PTH(1-21): radioiodinated [M]PTH(1-21) tracer radioligand (AVAEIQL[Nle]HQ[hArg]AKWLASVRRY-NH2; also: 125I radiolabel, position not given here) [reference compound]”: in assay [2] (direct binding of the radioligand), the “binding of radiolabeled peptide to HKRK-B28 cells (in words)” value is reported as “bound adequately”. For the same molecule, the “binding of radioligand to P1R-delNt (in words)” value in assay [5] is “did not bind detectably”.

On to `CC[C@H](C)[C@H](NC(=O)[C@H](CCC(=O)O)NC(=O)[C@H](C)NC(=O)[C@@H](NC(=O)C(C)(C)N)C(C)C)C(=O)N[C@@H](CCC(N)=O)C(=O)N[C@@H](CC(C)C)C(=O)N[C@@H](CCSC)C(=O)N[C@@H](Cc1c[nH]cn1)C(=O)N[C@@H](CCC(N)=O)C(=O)N[C@@H](CCCCNC(=N)N)C(=O)N[C@@H](C)C(=O)N[C@@H](CCCCN)C(=O)N[C@@H](Cc1c[nH]c2ccccc12)C(N)=O` [Aib-1, AibValAlaGluIleGlnLeuMetHisGlnHarAlaLysTrp] (H-[Aib]VAEIQLMHQ[hArg]AKW-NH2), for which, in assay [1], the “cAMP EMax(obs.)” value is on record as 273 ± 6 pmole/well. The “fold improvement of apparent binding affinity relative to [M]PTH(1-14)” value in assay [2] (HKRK-B28 cells) is “approximately 10 fold”. Moreover, in assay [4], the “fold more potent in stimulating cAMP formation than [M]PTH(1-14)” value was 15 fold and the “EMAX(obs.)” value came to 340 ± 30 pmole/well.

As to `CC[C@H](C)[C@H](NC(=O)[C@H](CCC(=O)O)NC(=O)[C@H](C)NC(=O)[C@@H](NC(=O)[C@H](C)N)C(C)C)C(=O)N[C@@H](CCC(N)=O)C(=O)N[C@@H](CC(C)C)C(=O)N[C@@H](CCSC)C(=O)N[C@@H](Cc1c[nH]cn1)C(=O)N[C@@H](CCC(N)=O)C(=O)NC(C)(C)C(=O)N[C@@H](C)C(=O)N[C@@H](CCCCN)C(=O)N[C@@H](Cc1c[nH]c2ccccc12)C(N)=O` [Aib-11] (H-AVAEIQLMHQ[Aib]AKW-NH2), in assay [1], the EC50 (commonly the concentration needed to bring the measured effect to its halfway point) was 67 µM and the “cAMP EMax(obs.)” value was 96 ± 18 pmole/well. Besides, the “Binding IC50” value in assay [2] (setting [6]) is given as “N.B”.
